The assay relates to swine class I promoter (PD1). The assay is described as follows: Transient transfection CAT assay, class I promoter chimeras in FRTL-5 cells. In kind it is cell-based. Particulars: for inhibition at 5000 µM / inhibition at 10 µM / inhibition at 25 µM / inhibition at 100 µM / inhibition at 1000 µM: Sus scrofa; for CAT activity +γIFN (100 U/ml) + MMI (5 mM) / CAT activity +γIFN (100 U/ml): 5H medium. From the text: The full length PD1 promoter, PD1 CAT construct pH […], inserted into the multicloning site of pSV3CAT, has been previously described (Erhlich, R. et al. Immunogenetics 30:18-26 (1989)). […] The deletion series was also cloned into the pSV3CAT reporter construct to assess promoter activities (Weisman J D, et al. ibid (1991); Maguire, J. et al., Mol. Cell. Biol., 12:3078-3086 (1992)). […] The number denotes the most 5′-residue in the 5′-flanking region of the PD1 promoter.
FRTL-5 rat thyroid cells (Interthyr Research Foundation, Baltimore, Md.; ATCC CRL8305) were the same subclone (F1) used in the gel shift experiments described earlier. They were grown in the following medium: Coon's modified F-12 medium containing 5% heat-treated, mycoplasma-free calf serum, 1 mM nonessential amino acids, and a mixture of six hormones (6H) containing bovine TSH (1×10^−10M), insulin (10 μg/ml), cortisol (0.4 ng/ml), transferrin (5 μg/ml), glycyl-L-histidyl-L-lysine acetate (10 ng/ml), and somatostatin (10 ng/ml). Cells were diploid and between their 5th and 25th passage. Fresh medium was added every 2 or 3 days and cells were passaged every 7-10 days. In some experiments, cells were grown to near confluency in 6H medium then maintained for 5-8 days, before experiments were initiated, in 5H medium with no TSH.
To measure the promoter activity of MHC class I promoter constructs, as reported by CAT activity, two procedures were used. In one, rat FRTL-5 thyroid cells were transfected by the electroporation method described previously (Saji, M., et al., ibid (1992b); Giuliani, C., et al., ibid (1995); Saji, M., et al., ibid (1997)). In brief, FRTL-5 cells were grown to 80% confluence, put in fresh 6H medium containing 5% calf serum for 12 hours, harvested, washed and suspended at 1.5×10^7 cells/mil in 0.8 ml electroporation buffer (272 mM sucrose, 7 mM sodium phosphate at pH 7.4, and 1 mM MgCl2). Twenty μg of the full-length CAT construct were added with 5 μg pSVGH. Cells were then pulsed (330 volts, capacitance 25 μfarad), plated (approximately 6×10^6 cell/dish), and cultured for 12 hours in 6H medium containing 5% calf serum. […] After 48 hours they were harvested. […] Medium was taken for hGH radioimmunoassay to monitor transfection efficiency (Nichols Institute, San Juan Capistrano, Calif.) and cells were harvested for CAT assays which used 20-50 μg cell lysate in a final volume of 130 μl. Incubation was at 37° C. for 2 or 4 hours; acetylated chloramphenicol was separated by thin layer chromatograpy (TLC) and positive spots on TLC plates were cut out and quantitated in a scintillation spectrometer. CAT activity was normalized to GH activity and/or cell protein before data were compared.
Alternatively transient transfections used the same class I-CAT chimeras and a DEAE-dextran procedure (Lopata M A, et al., Nucleic Acids Res. 12:5707-5717 (1984); Giuliani C, et al., ibid (1995)). Cells were grown to near (80%) confluency in 6H medium, shifted to 5H medium for 1 day, washed twice with Dulbecco's modified phosphate buffered saline (DPBS), pH 7.4, and incubated 1 hour with 5 ml serum-free 5H medium containing the plasmid DNA plus 250 μg DEAE-dextran (5 Prime-3 Prime, Inc.). Cells were then exposed to 10% dimethylsulfoxide in DPBS for 3 min., washed twice in DPBS, cultured in 5H medium for 24 hours, then maintained therein another 48 hours with or without MMI, MMI derivatives or tautomeric cyclic thiones, as noted. Efficiency of transfection was determined by cotransfection as above or with 5 μg pRSVLuc (De Wet J R, et al., Mol. Cell. Biol. 7:725-737 (1987)).
In this experiment, FRTL-5 cells were grown to near confluency in 6H medium (plus TSH) and then were maintained in 5H medium (no TSH) for 7 days before being treated with γ-IFN or γ-IFN plus MMI for 40 hours. Control cells were those maintained in 5H medium for the same 40 hours. CAT activity was measured as described above.

Where [1] appears, read: 10 μM, 100 U/ml γ-interferon, 6H medium, 40 hours.
Where [2] appears, read: 100 μM, 100 U/ml γ-interferon, 6H medium, 40 hours.
The mark [3] stands for this setting: 1.0 mM, 100 U/ml γ-interferon, 6H medium, 40 hours.
Where [4] appears, read: 5 mM, 100 U/ml γ-interferon, 6H medium, 40 hours.
Setting [5] is: FRTL-5, 5 mM, 6H medium, 36 hours, read-out: % inhibition of basal p(−203)CAT class I promoter activity.
Where [6] appears, read: FRTL-5, 5 mM, 100 U/ml γ-interferon, 6H medium, 40 hours, read-out: % inhibition of IFN-increased p(−203)CAT class I promoter activity.
Where [7] appears, read: FRTL-5, 10 μM, 100 U/ml γ-interferon, 6H medium, 40 hours, read-out: % inhibition of IFN-increased p(−203)CAT class I promoter activity.
[8] abbreviates: FRTL-5, 25 μM, 6H medium, 36 hours, read-out: % inhibition of basal p(−203)CAT class I promoter activity.
Where [9] appears, read: FRTL-5, 100 μM, 6H medium, 36 hours, read-out: % inhibition of basal p(−203)CAT class I promoter activity.
[10] abbreviates: FRTL-5, 100 μM, 100 U/ml γ-interferon, 6H medium, 40 hours, read-out: % inhibition of IFN-increased p(−203)CAT class I promoter activity.
The mark [11] stands for this setting: FRTL-5, 1.0 mM, 6H medium, 36 hours, read-out: % inhibition of basal p(−203)CAT class I promoter activity.
Setting [12] is: FRTL-5, 1.0 mM, 100 U/ml γ-interferon, 6H medium, 40 hours, read-out: % inhibition of IFN-increased p(−203)CAT class I promoter activity.
The mark [13] stands for this setting: FRTL-5, read-out: % inhibition of IFN-increased p(−203)CAT class I promoter activity.
Where [14] appears, read: FRTL-5, read-out: % inhibition of basal p(−203)CAT class I promoter activity.

Where two headings read alike, the source gives them in different places.

As to `Sc1ncc[nH]1` [Compound 3, 2-Mercaptoimidazole], the “% inhibition of IFN-increased p(−203)CAT class I promoter activity” value is, setting by setting: under setting [1], “None”; under setting [2], “None”; under setting [3], “None”; under setting [4], “None”.
By inhibition is commonly meant the percentage by which the read-out fell short of the control. Take `O=[N+]([O-])c1ccc2[nH]c(S)nc2c1` [Compound 5, 2-Mercapto-5-nitrobenzimidazole]: the inhibition at 5000 µM is, setting by setting: under setting [5], 45 ± 8%; under setting [6], 43 ± 9%.
On to `Cn1c(-c2ccccc2)cnc1S` [Compound 10, 5-Phenylmethimazole], for which the inhibition at 10 µM under setting [7] was found to be 35 ± 10%. Moreover, under setting [8], the inhibition at 25 µM came to 45 ± 9%. Also, the inhibition at 100 µM reads like this: under setting [9], 71 ± 6%; under setting [10], 81 ± 14%. Also, the inhibition at 1000 µM worked out at 92 ± 12% under setting [11] and 90 ± 13% under setting [12].
`Sc1nc2ccccc2[nH]1` [Compound 4, 2-Mercaptobenzimidazole]: under setting [13], the inhibition at 10 µM was 0%, the inhibition at 100 µM turned out to be 0%, the inhibition at 1000 µM was 40 ± 8% and the inhibition at 5000 µM is 76 ± 10%. Under setting [14], the inhibition at 25 µM amounted to 0%, the inhibition at 100 µM is 0%, the inhibition at 1000 µM was 50 ± 12% and the inhibition at 5000 µM is 90 ± 14%.
As for `Cc1ccc2[nH]c(S)nc2c1` [Compound 6, 2-Mercapto-5-methylbenzimidazole], the inhibition at 5000 µM came out at 57 ± 13% under setting [5] and 49 ± 7% under setting [6].
`Cc1cnc(S)n1C` [Compound 9, 5-Methylmethimazole]: under setting [7], the inhibition at 10 µM is 0%. Further, the inhibition at 25 µM under setting [8] was 0%. Moreover, the inhibition at 100 µM is, setting by setting: under setting [9], 0%; under setting [10], 0%. Besides, the inhibition at 1000 µM worked out at 14 ± 10% under setting [11] and 10 ± 10% under setting [12]. Also, the inhibition at 5000 µM reads like this: under setting [5], 25 ± 7%; under setting [6], 29 ± 11%.
As to `Cc1ncc([N+](=O)[O-])n1CCO` [Compound 2, 2-Methyl-5-nitro-1-imidazole ethanol], the inhibition at 10 µM under setting [7] stood at 0%. Further, the inhibition at 25 µM under setting [8] is 0%. For the same molecule, the inhibition at 100 µM is, setting by setting: under setting [9], 10 ± 8%; under setting [10], 0%. For the same molecule, the inhibition at 1000 µM runs as follows: under setting [11], 37 ± 11%; under setting [12], 45 ± 5%. The inhibition at 5000 µM under setting [5] was determined as 74 ± 9% and the inhibition at 5000 µM under setting [6] was 84 ± 13%.
As for `Cn1ccn(C)c1=S` [Compound 8, N-Methylmethimazole], the “% inhibition of IFN-increased p(−203)CAT class I promoter activity” value is reported as 0% under setting [1], 38 ± 9% under setting [2], 69 ± 7% under setting [3] and 77 ± 14% under setting [4]. In addition, the “% inhibition of basal p(−203)CAT class I promoter activity” value was determined as 5 ± 5% (25 μM, 6H medium, 36 hours); 48 ± 10% (100 μM, 6H medium, 36 hours); 72 ± 6% (1.0 mM, 6H medium, 36 hours); 87 ± 11% (5 mM, 6H medium, 36 hours).
On to `CSc1nccn1C` [Compound 7, S-Methylmethimazole], for which the inhibition at 10 µM under setting [7] came to 0%. Also, the inhibition at 25 µM under setting [8] turned out to be 0%. In addition, the inhibition at 100 µM under setting [9] is 10 ± 9% and the inhibition at 100 µM under setting [10] came out at 14 ± 11%. For the same molecule, the inhibition at 1000 µM under setting [11] was determined as 51 ± 6% and the inhibition at 1000 µM under setting [12] turned out to be 50 ± 13%. Moreover, the inhibition at 5000 µM came out at 68 ± 8% under setting [5] and 58 ± 12% under setting [6].
Consider `Cn1ccnc1S` [Compound 1, 1-Methylimidazole-2-thiol], for which the inhibition at 10 µM under setting [7] is 0%. Further, under setting [8], the inhibition at 25 µM was determined as 0%. Further, the inhibition at 100 µM is, setting by setting: under setting [9], 0%; under setting [10], 0%. Moreover, the inhibition at 1000 µM under setting [11] is 32 ± 7% and the inhibition at 1000 µM under setting [12] stood at 35 ± 8%. For the same molecule, the inhibition at 5000 µM turned out to be 74 ± 10% under setting [5] and 72 ± 12% under setting [6]. For the same molecule, the “CAT activity +γIFN (100 U/ml) + MMI (5 mM)” value is, setting by setting: (chimera p(−127), 40 hours) 55 ± 4 % of Control; (chimera p(−203), 40 hours) 95 ± 26 % of Control; (chimera p(−1100), 40 hours) 163 ± 48 % of Control; (pSV0 control plasmid, 40 hours) 38 ± 9 % of Control.

B1: γ-IFN: rat recombinant γ-interferon, 100 U/ml, used to increase MHC class I and class II expression in FRTL-5 cells (protein, UniProt P01581 23-156, looked up)
Interferon gamma: QGTLIESLESLKNYFNSSSMDAMEGKSLLLDIWRNWQKDGNTKILESQIISFYLRLFEVLKDNQAISNNISVIESHLITNFFSNSKAKKDAFMSIAKFEVNNPQIQHKAVNELIRVIHQLSPESSLRKRKRSRC
For B1, the “CAT activity +γIFN (100 U/ml)” value runs as follows: (chimera p(−127), 40 hours) 500 ± 27 % of Control; (chimera p(−203), 40 hours) 750 ± 25 % of Control; (chimera p(−1100), 40 hours) 460 ± 40 % of Control; (pSV0 control plasmid, 40 hours) 48 ± 7 % of Control.

Source of the values: patent US6365616B1, “Methimazole derivatives and tautomeric cyclic thiones to treat autoimmune diseases” (Sentron Medical, Inc., priority 1998, dated 2002).
